Test system: corneal endothelial cell monolayer
Experiment: Corneal endothelial barrier function: CF permeation through cultured corneal endothelial cell monolayer on permeable collagen membrane
Type: cell-based, male white rabbits
Settings: result in words; effect grows with increasing concentration of substance (I) in the test solution
Procedure: The eyeballs of male white rabbits were enucleated and in a culture medium prepared by adding 10 % fetal calf serum to Dulbecco's Modified MEM (trademark: Dulbecco's Modified Eagle Medium "Nissui" 2, Nissui Pharmaceutical), (hereinafter referred to as DMEM), the cornea was cut out along the corneosclerai limbus with a pair of scissors. From each of the isolated corneal specimens (8 eyes), the endothelium with Descemet's membrane was peeled off, shorn into small pieces, and seeded with about 5 ml of DMEM in a 75 cm^2 culture flask (trademark: Nunclon Tissue Culture Flask 147589; manufactured by Nunc). After adhesion of the cells to the bottom of the flask, about 20 ml of DMEM was added and the cells were cultured for about 7 days until the growth on the internal wall of the flask became confluent. During this period, the medium was replaced with fresh one every 3 days. After completion of culture, the cells were digested with 5 ml of EDTA- trypsin (a phosphate buffer containing 0.01 % of EDTA and 0.125 % of trypsin and not containing calcium or magnesium ion) and, then, mixed with a sufficient quantity of DMEM to terminate the digestion. The digest was centrifuged at 1000 rpm for 2 minutes and the cells were then collected. The harvested cells were re-suspended in DMEM and filtered through a […] nylon filter to remove Descemet's membrane, leaving an exclusive suspension of cells. […]

SMILES: O=C1O[C@H]([C@@H](O)CO)C(O)=C1OP(=O)(O)O [substance (I)]
- permeation of CF through the cultured corneal endothelial cell monolayer: inhibits the permeation of CF
